Measurements reported in PMC5720837, “Identification of a 4-fluorobenzyl L-valinate amide benzoxaborole (AN11736) as a potential development candidate for the treatment of Animal African Trypanosomiasis (AAT)” (Bioorganic & Medicinal Chemistry Letters, 2018).

What was measured:
[1] = system: Trypanosoma vivax (T. vivax STIB719/ILRAD 560 strain), bloodstream form; experiment: Whole cell Alamar Blue assay, T. vivax (48 h ex vivo); format: cell-based; conditions: Trypanosoma vivax; T. vivax STIB719/ILRAD 560, 48 h ex vivo Alamar Blue assay
Procedure: (§1) Activity of compounds 1–71 against T. congolense and T. vivax was determined using the whole cell assays as described ^6 and their IC50 values are summarized in Table 1.
(§2) [6] Assay methods for determination of T. c. and T. v. […] Culture media consisted of complete HMI-9 (IMDM) with 20% bovine serum. To ensure log growth phase, trypanosomes were sub-cultured at appropriate dilutions every 2–3 days. Bloodstream form Trypanosoma vivax (T. vivax) cannot be cultured axenically, therefore trypanosomes (T. vivax STIB719/ILRAD 560 strain) were harvested from a highly parasitemia mouse via cardiac puncture and used directly in the ex vivo drug sensitivity assay on the same day. […] Parasite starting concentrations of 2 × 10^5 (T. c.) and 4 × 10^5 (T. v.) were calculated respectively, using a cell analyzer system or haemo-cytometer, followed by quantification at 536 nm excitation and 588 nm emission wavelengths using a […] reader. Test compounds were prepared as 10 mg/mL DMSO stocks for each assay run. Compounds were assayed in at least three separate, independent test runs and an 11-point dilution curve was used to determine the IC50 values. Data points were averaged to generate sigmoidal dose-response curves and IC50 values were determined using Softmax Pro 5.2 software.

[2] = system: Trypanosoma congolense (T. congolense IL-3000 strain), bloodstream form; experiment: Whole cell Alamar Blue assay, T. congolense (72 h in vitro); format: cell-based; conditions: T. congolense IL-3000, 72 h in vitro Alamar Blue assay
Procedure: as §1, §2

[3] = In vitro metabolic stability, mouse S9; format: in vitro ADME; conditions: S9 fraction
Procedure: (§3) Selected compounds were screened in both mouse and bovine in vitro metabolic stability assays (mouse S9 and bovine S9), as summarized in Table 2. These two species were chosen because the primary in vivo assays were conducted in mice, and the target animal of this research program is cattle. […] We evaluated the efficacy of selected compounds in two in vivo mouse models of infection, against T. congolense and T. vivax, respectively. Mice were infected with either 1 × 10^5 T. c. parasites or 1 × 10^4 T. v. parasites, and then treated with a test compound via intraperitoneal administration for 1, 2 or 4 consecutive days. The mice were then monitored for the presence of parasitemia for up to 60 days post treatment.[7] We tested in T. c. model first, then followed up with T. v. for interesting compounds. […] We selected compound 5 (AN11736) to progress to exploratory studies to determine the efficacy and safety in a preliminary formulation against induced infections of T. vivax and T. congolense in cattle.[8]

[4] = system: T. c. parasites (STIB736/IL1180 strain); experiment: In vivo mouse model of T. congolense infection; set-up: species or system NMRI female mice; conditions: 1 × 10 mg/kg, intraperitoneal, monitored 60 days post treatment
Procedure: as §3
[7] Methods for testing compound efficacy in mouse models: In vivo mouse efficacy studies were performed at the Swiss TPH, using established mouse models of infection for T. c. and T. v. NMRI female mice were independently infected either with 1 × 10^5T. c. parasites/mouse (STIB736/IL1180 strain) or 1 × 10^4T. v. parasites/mouse (STIB719/ILRAD560 strain) using an intraperitoneal route. Parasitemia was allowed to develop over 7 days (T. c.) or 3 days (T. v.), respectively, before treatment was administered. Compounds were administered via intraperitoneal injection in 10% DMSO/water. Four mice were used per treatment group. Mice were monitored for the presence of trypanosomes, via tail blood examination microscopically with twice-per-week parasitemia checks for 60 days post treatment. Parasitemia was graded on a scale of 0–3, with 0 indicating no trypanosomes seen in 20 fields of view, 1 indicating the presence of 1–5 trypanosomes per field, 2 indicating the presence of 6–20 trypanosomes per field and 3 indicating greater than 20 trypanosomes per field. Mice scoring 2 or 3 were immediately euthanized. After 60 days, aparasitemic mice were considered cured. Untreated control mice survive on average for 10 and 6 days post infection for T. c. and T. v., respectively. All in vivo mouse experiments were conducted in accordance with the strict guidelines set out by the Swiss Federal Veterinary Office, under the ethical approval of license number #2813.

[5] = In vitro metabolic stability, bovine S9; format: in vitro ADME; conditions: S9 fraction
Procedure: as §3

Structure (SMILES) | IC50 [1] | IC50 ([2]; Trypanosoma congolense, 72 h) | microsomal CLint [3] | Efficacy in mouse model T. c., n/m (mice survived / total mice in group) [4] | microsomal CLint [5] | IC50 [2]
Cc1c(C(=O)N[C@H](C(=O)OCc2cccnc2)C(C)C)ccc2c1B(O)OC2 [Compound 37] | 0.5 nM | 0.78 nM | – | – | – | –
Cc1c(C(=O)N[C@H](C(=O)OCc2cccc(F)c2)C(C)C)ccc2c1B(O)OC2 [Compound 7] | 0.1 nM | 0.59 nM | – | – | – | –
Cc1c(C(=O)N[C@H](C(=O)OC(C)C)C(C)C)ccc2c1B(O)OC2 [Compound 56] | 14 nM | 5.2 nM | – | – | – | –
CC(C)[C@H](NC(=O)c1ccc2c(c1)B(O)OC2(C)C)C(=O)OCc1ccccc1 [Compound 3] | 9190 nM | 2580 nM | – | – | – | –
Cc1c(C(=O)N[C@H](C(=O)OCc2cscn2)C(C)C)ccc2c1B(O)OC2 [Compound 43] | – | 0.062 nM | – | – | – | –
Cc1c(C(=O)N[C@H](C(=O)OCc2cc(F)c(F)c(F)c2)C(C)C)ccc2c1B(O)OC2 [Compound 18] | 0.06 nM | 0.2 nM | 9.7 µL/min/mg | 1/4 (1 × 10) | 3.1 µL/min/mg | –
Cc1c(C(=O)N[C@H](C(=O)OCc2ncc3ccccc3n2)C(C)C)ccc2c1B(O)OC2 [Compound 48] | 0.71 nM | < 0.005 nM | 4 µL/min/mg | 1/4 (1 × 10) | 23 µL/min/mg | –
Cc1c(C(=O)N[C@H](C(=O)OCc2cccc(CN3CCN(C)CC3)c2)C(C)C)ccc2c1B(O)OC2 [Compound 52] | 0.29 nM | 1.3 nM | 1.8 µL/min/mg | 0/4 (1 × 10) | 6 µL/min/mg | –
Cc1c(C(=O)N[C@H](C(=O)OCc2ccc3ccccc3n2)C(C)C)ccc2c1B(O)OC2 [Compound 45] | 0.33 nM | 0.37 nM | – | – | – | –
Cc1c(C(=O)N[C@H](C(=O)OCc2ccc(Cl)cc2)C(C)C)ccc2c1B(O)OC2 [Compound 6] | 2.9 nM | 0.47 nM | 17 µL/min/mg | 0/4 (1 × 10) | 9.1 µL/min/mg | –
Cc1c(C(=O)N[C@H](C(=O)OCc2ccncc2)C(C)C)ccc2c1B(O)OC2 [Compound 38] | 0.31 nM | 0.68 nM | – | – | – | –
Cc1c(C(=O)N[C@H](C(=O)OC2COC2)C(C)C)ccc2c1B(O)OC2 [Compound 68] | 37 nM | 1.8 nM | – | – | – | –
Cc1c(C(=O)N[C@H](C(=O)OCc2ccc(C#N)cc2)C(C)C)ccc2c1B(O)OC2 [Compound 15] | 0.05 nM | 0.15 nM | – | – | – | –
Cc1c(C(=O)N[C@H](C(=O)OCc2cc(F)cc(F)c2)C(C)C)ccc2c1B(O)OC2 [Compound 9] | 0.1 nM | 0.18 nM | – | – | – | –
C[C@H](NC(=O)c1ccc2c(c1)B(O)OC2)C(=O)OCc1ccccc1 [Compound 1] | 69 nM | 5 nM | – | – | – | 4.9 nM
Cc1c(C(=O)N[C@H](C(=O)OCc2ccc(C(F)(F)F)cc2)C(C)C)ccc2c1B(O)OC2 [Compound 11] | 24 nM | 0.16 nM | – | – | – | –
Cc1c(C(=O)N[C@H](C(=O)OCc2nccs2)C(C)C)ccc2c1B(O)OC2 [Compound 42] | 0.19 nM | 0.2 nM | – | – | – | –
Cc1c(C(=O)N[C@H](C(=O)OC2CCCCC2)C(C)C)ccc2c1B(O)OC2 [Compound 60] | 0.78 nM | < 0.005 nM | – | – | – | –
CC(C)[C@H](NC(=O)c1ccc2c(c1C(F)(F)F)B(O)OC2)C(=O)OCc1ccc(F)cc1 [Compound 23] | 51 nM | 37 nM | – | – | – | –

Structure (SMILES) | IC50 [1] | IC50 ([2]; Trypanosoma congolense, 72 h) | microsomal CLint [3] | Efficacy in mouse model T. c., n/m (mice survived / total mice in group) [4] | microsomal CLint [5] | IC50 [2]
Cc1c(C(=O)N[C@H](C(=O)OCc2cccc(C(F)(F)F)c2)C(C)C)ccc2c1B(O)OC2 [Compound 10] | 2.7 nM | 0.22 nM | – | – | – | –
Cc1c(C(=O)N[C@H](C(=O)OCc2cccc(OC(F)(F)F)c2)C(C)C)ccc2c1B(O)OC2 [Compound 12] | 19 nM | 0.31 nM | – | – | – | –
Cc1c(C(=O)N[C@H](C(=O)OCC(C)C)C(C)C)ccc2c1B(O)OC2 [Compound 57] | 0.26 nM | 0.46 nM | – | – | – | –
Cc1c(C(=O)N[C@H](C(=O)OCCN2CCOCC2)C(C)C)ccc2c1B(O)OC2 [Compound 64] | 0.78 nM | 2.3 nM | – | – | – | –
Cc1c(C(=O)N[C@H](C(=O)OC2CCC2)C(C)C)ccc2c1B(O)OC2 [Compound 58] | 0.69 nM | 0.66 nM | – | – | – | –
Cc1c(C(=O)NC2(C(=O)OCc3ccc(F)cc3)CCC2)ccc2c1B(O)OC2 [Compound 32] | 2.5 nM | 0.45 nM | – | – | – | –
Cc1c(C(=O)N[C@H](C(=O)OCCc2ccc(F)cc2)C(C)C)ccc2c1B(O)OC2 [Compound 67] | 0.79 nM | 0.43 nM | – | – | – | –
Cc1c(C(=O)N[C@H](C(=O)OCc2ccc(F)cc2)C2CC2)ccc2c1B(O)OC2 [Compound 28] | 0.38 nM | 0.12 nM | – | – | – | –
Cc1c(C(=O)N[C@H](C(=O)OC2CCCC2)C(C)C)ccc2c1B(O)OC2 [Compound 59] | 0.52 nM | 0.7 nM | – | – | – | –
CC(C)[C@H](NC(=O)c1ccc2c(c1C1CC1)B(O)OC2)C(=O)OCc1ccc(F)cc1 [Compound 27] | 0.71 nM | 3.9 nM | – | – | – | –
CCCc1c(C(=O)N[C@H](C(=O)OCc2ccc(F)cc2)C(C)C)ccc2c1B(O)OC2 [Compound 25] | 4.7 nM | 3 nM | – | – | – | –
Cc1c(C(=O)N[C@H](C(=O)OCCN2CCCC2)C(C)C)ccc2c1B(O)OC2 [Compound 65] | 1.2 nM | 9.4 nM | – | – | – | –
Cc1c(C(=O)N[C@H](C(=O)OCC2CCCC2)C(C)C)ccc2c1B(O)OC2 [Compound 61] | 0.21 nM | 0.36 nM | – | – | – | –
Cc1c(C(=O)N[C@H](C(=O)OCC2CCN(C)CC2)C(C)C)ccc2c1B(O)OC2 [Compound 66] | 4.1 nM | 5.9 nM | – | – | – | –
Cc1c(C(=O)N[C@H](C(=O)OCc2ccccn2)C(C)C)ccc2c1B(O)OC2 [Compound 36] | 0.14 nM | 0.26 nM | – | – | – | –
Cc1c(C(=O)N[C@H](C(=O)OCc2ncc(F)cn2)C(C)C)ccc2c1B(O)OC2 [Compound 40] | 0.5 nM | 0.27 nM | – | – | – | –
Cc1c(C(=O)N[C@H](C(=O)OCc2c[nH]cn2)C(C)C)ccc2c1B(O)OC2 [Compound 44] | 980 nM | 5000 nM | – | – | – | –
Cc1c(C(=O)N[C@H](C(=O)OCc2ccc(OC(F)(F)F)cc2)C(C)C)ccc2c1B(O)OC2 [Compound 13] | 0.04 nM | 0.23 nM | – | – | – | –
